In US20140249135A1, “PIM KINASE INHIBITORS AND METHODS OF THEIR USE” (NOVARTIS AG, priority 2007, published 2014):

Assays:
[1] = biological target: Pim1 kinase (Homo sapiens, UniProt P11309); test: Pim1 ATP depletion assay; format: biochemical; details: Pim1 ATP depletion assay; read-out: IC50 (μM) PIM1;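 further: Luciferase-luciferin luminescence readout of residual ATP after PIM1 transfers phosphate to a peptide substrate, 40 µM ATP added, reaction run to roughly half ATP consumption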
[2] = test system: HEL 92.1.7 cells; test: Cell proliferation assay (CellTiter-Glo), HEL 92.1.7; format: cell-based; details: Homo sapiens, read-out: EC50 (μM) HEL 92.1.7
Experimental: HEL 92.1.7 cells (ATTC No. TIB-180, an erythroleukemia line derived from malignant peripheral blood), MV4-11 cells (ATCC No. CRL-9591, a human acute monocytic leukemia line) and PC3 cells (ATCC No. CRL-1435, a human prostatic adenocarcinoma line) were cultured in RPMI1640 supplemented with 10% FBS, sodium pyruvate and antibiotics. Cells were plated in the same medium at a density of 1000 cells per well into 96 well tissue culture plates, with outside wells vacant, on the day of assay.
Test compounds supplied in DMSO were diluted into DMSO at 500 times the desired final concentrations before dilution into culture media to 2 times final concentrations. Equal volumes of 2× compounds were added to the cells in 96 well plates and incubated at 37° C. for 3 days.
After 3 days plates were equilibrated to room temperature and equal volume of CellTiter-Glow Reagent (Promega) was added to the culture wells. The plates were agitated briefly and luminescent signal was measured with luminometer. The percent inhibition of the signal seen in cells treated with DMSO alone vs. cells treated with control compound was calculated and used to determine EC50 values (i.e., the concentration of a test compound that is required to obtain 50% of the maximum effect in the cells) for tested compounds, as shown in Example 763.

[3] = biological target: Pim3 kinase (Homo sapiens, UniProt Q86V86); test: Pim3 ATP depletion assay; format: biochemical; details: read-out: IC50 (μM) PIM3
[4] = biological target: Pim2 kinase (Homo sapiens, UniProt Q9P1W9); test: Pim2 ATP depletion assay; format: biochemical; details: read-out: IC50 (μM) PIM2;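 further: Luciferase-based luminescent readout of ATP remaining after PIM2 phosphorylates a BAD peptide, final 5 nM enzyme, 4 µM ATP, 10 µM peptide, 2.5% DMSO, run to roughly half ATP consumption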
Sequence of Pim2 kinase (Q9P1W9 whole entry): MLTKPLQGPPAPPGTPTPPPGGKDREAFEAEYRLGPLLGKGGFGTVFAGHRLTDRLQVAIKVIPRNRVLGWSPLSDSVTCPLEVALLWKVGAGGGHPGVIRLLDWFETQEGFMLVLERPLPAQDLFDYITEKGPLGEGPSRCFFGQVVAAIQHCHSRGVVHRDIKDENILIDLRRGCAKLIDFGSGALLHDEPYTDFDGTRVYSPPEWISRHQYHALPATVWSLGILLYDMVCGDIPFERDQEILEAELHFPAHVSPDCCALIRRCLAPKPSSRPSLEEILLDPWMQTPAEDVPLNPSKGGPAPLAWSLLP

[5] = biological target: T1, human full length PKCE enzyme (Homo sapiens, UniProt Q02156); test: In vitro PKCE assay; format: biochemical; details: 10 nM enzyme, 40 uM peptide substrate, 20 uM ATP, KinaseGlo Plus readout; read-out: PKCε IC50
T1 construct: human full length PKCE enzyme purchased from InVitrogen; purchased InVitrogen
T1 sequence (Q02156 1-737): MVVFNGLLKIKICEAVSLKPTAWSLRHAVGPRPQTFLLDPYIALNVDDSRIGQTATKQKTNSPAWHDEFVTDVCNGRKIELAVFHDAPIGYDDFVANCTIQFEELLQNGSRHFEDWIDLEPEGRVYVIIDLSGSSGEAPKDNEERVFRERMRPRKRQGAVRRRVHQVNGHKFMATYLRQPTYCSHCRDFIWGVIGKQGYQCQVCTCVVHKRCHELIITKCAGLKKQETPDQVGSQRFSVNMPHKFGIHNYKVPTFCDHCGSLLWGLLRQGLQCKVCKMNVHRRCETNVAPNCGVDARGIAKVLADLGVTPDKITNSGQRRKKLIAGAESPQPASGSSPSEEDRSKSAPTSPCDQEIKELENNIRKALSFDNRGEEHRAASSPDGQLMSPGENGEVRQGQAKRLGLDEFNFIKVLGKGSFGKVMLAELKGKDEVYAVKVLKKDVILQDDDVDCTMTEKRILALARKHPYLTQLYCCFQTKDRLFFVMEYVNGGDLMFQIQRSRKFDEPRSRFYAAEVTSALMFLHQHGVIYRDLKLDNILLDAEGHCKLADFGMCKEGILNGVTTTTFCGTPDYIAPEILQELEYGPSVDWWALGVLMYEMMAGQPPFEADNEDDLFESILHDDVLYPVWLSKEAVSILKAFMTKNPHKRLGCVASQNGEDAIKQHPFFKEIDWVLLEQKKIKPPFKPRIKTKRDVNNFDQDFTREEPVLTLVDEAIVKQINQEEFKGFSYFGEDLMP

Sequence of Pim1 kinase (P11309 whole entry): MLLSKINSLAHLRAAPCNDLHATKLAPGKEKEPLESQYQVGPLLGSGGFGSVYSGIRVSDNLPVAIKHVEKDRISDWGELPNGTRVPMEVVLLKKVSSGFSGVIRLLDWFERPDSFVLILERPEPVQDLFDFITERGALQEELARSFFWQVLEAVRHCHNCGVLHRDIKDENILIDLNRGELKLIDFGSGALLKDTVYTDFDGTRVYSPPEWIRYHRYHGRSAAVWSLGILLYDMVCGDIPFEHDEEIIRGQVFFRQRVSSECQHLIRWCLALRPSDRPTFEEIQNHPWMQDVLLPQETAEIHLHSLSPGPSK

| SMILES | IC50 [1] | EC50 [2] | IC50 [3] | IC50 [4] | IC50 [5] |
| --- | --- | --- | --- | --- | --- |
| Nc1ncc(-c2cccc(Cl)c2)nc1C(=O)Nc1cnccc1N1CCCC(N)C1 (centres unmarked) [Example 352, 3-amino-6-(3-chloro-phenyl)-pyrazine-2-carboxylic acid (3-amino-3,4,5,6-tetrahydro-2H-[1,4′]bipyridinyl-3′-yl)-amide] | < 1 µM | < 1 µM | < 1 µM | < 1 µM | < 1 µM |
| COc1ccc(F)cc1-c1ccc(N)c(C(=O)Nc2cnccc2N2CCC[C@H](N)C2)n1 [Example 427, 3-amino-6-(5-fluoro-2-methoxy-phenyl)-pyridine-2-carboxylic acid ((S)-3-amino-3,4,5,6-tetra-hydro-2H-[1,4′]bipyridinyl-3′-yl)-amide] | < 1 µM | 1 to 5 µM | < 1 µM | < 1 µM | 10 to 25 µM |
| Nc1ncc(-c2ccccc2Cl)nc1C(=O)Nc1[nH]c(=O)ncc1N1CCCC(N)C1 (centres unmarked) [Example 402, 3-amino-6-(2-chloro-phenyl)-pyrazine-2-carboxylic acid [5-(3-amino-piperidin-1-yl)-2-oxo-2,3-dihydro-pyrimidin-4-yl]-amide] | < 1 µM | 5 to 10 µM | < 1 µM | < 1 µM | 1 to 10 µM |
| Nc1nc(N)c(C(=O)Nc2[nH]c(=O)ncc2N2CCCC(C(F)(F)F)C2)nc1Cl (centres unmarked) [Example 148, 3,5-diamino-6-chloro-N-{2-oxo-5-[3-(trifluoromethyl)piperidin-1-yl]-2,3-dihydropyrimidin-4-yl}pyrazine-2-carboxamide] | < 1 µM | > 10 µM | < 1 µM | < 1 µM | 10 to 25 µM |
| NCC1CCCN(c2ccncc2NC(=O)c2nc(Br)cnc2N)C1 (centres unmarked) [Example 180, 3-amino-N-{4-[3-(amino-methyl)piperidin-1-yl]pyridin-3-yl}-6-bromopyrazine-2-carboxamide] | < 1 µM | < 1 µM | < 1 µM | < 1 µM | < 1 µM |
| Nc1ncc(-c2ccccc2F)nc1C(=O)Nc1[nH]c(=O)ncc1N1CCCC(N)C1 (centres unmarked) [Example 401, 3-amino-6-(2-fluoro-phenyl)-pyrazine-2-carboxylic acid [5-(3-amino-piperidin-1-yl)-2-oxo-2,3-dihydro-pyrimidin-4-yl]-amide] | < 1 µM | 5 to 10 µM | < 1 µM | < 1 µM | < 1 µM |
| Nc1ncc(Br)nc1C(=O)Nc1[nH]c(=O)ncc1N1CCC(F)(F)CC1 [Example 157, 3-amino-6-bromo-N-[5-(4,4-difluoropiperidin-1-yl)-2-oxo-2,3-dihydropyrimidin-4-yl]-pyrazine-2-carboxamide] | < 1 µM | > 10 µM | < 1 µM | < 1 µM | > 25 µM |
| Nc1ncc(Br)nc1C(=O)Nc1[nH]c(=O)ncc1-c1nccs1 [Example 143, 3-amino-6-bromo-N-[2-oxo-5-(1,3-thiazol-2-yl)-2,3-dihydro-pyrimidin-4-yl]pyrazine-2-carboxamide] | < 1 µM | 1 to 5 µM | < 1 µM | < 1 µM | > 25 µM |
| Nc1ncc(Br)nc1C(=O)Nc1[nH]c(=O)ncc1-c1cccs1 [Example 142, 3-amino-6-bromo-N-[2-oxo-5-(2-thienyl)-2,3-dihydro-pyrimidin-4-yl]pyrazine-2-carboxamide] | < 1 µM | 1 to 5 µM | < 1 µM | < 1 µM | 1 to 10 µM |
| COc1ccccc1-c1cnc(N)c(C(=O)Nc2cnccc2N2CCCC(N)C2)n1 (centres unmarked) [Example 349, 3-amino-6-(2-methoxy-phenyl)-pyrazine-2-carboxylic acid (3-amino-3,4,5,6-tetra-hydro-2H-[1,4′]bipyridinyl-3′-yl)-amide] | < 1 µM | < 1 µM | < 1 µM | < 1 µM | 1 to 10 µM |
| Nc1ncc(Br)nc1C(=O)Nc1[nH]c(=O)ncc1N1CCC(F)CC1 [Example 150, 3-amino-6-bromo-N-[5-(4-fluoropiperidin-1-yl)-2-oxo-2,3-dihydropyrimidin-4-yl]pyrazine-2-carboxamide] | < 1 µM | 1 to 5 µM | < 1 µM | < 1 µM | 1 to 10 µM |
| Nc1ncc(-c2cncnc2)nc1C(=O)Nc1cnccc1N1CCCC(N)C1 (centres unmarked) [Example 357, 3-amino-6-pyrimidin-5-yl-pyrazine-2-carboxylic acid (3-amino-3,4,5,6-tetrahydro-2H-[1,4′]bipyridinyl-3′-yl)-amide] | < 1 µM | 1 to 5 µM | < 1 µM | < 1 µM | 1 to 10 µM |
| Nc1nccnc1C(=O)Nc1cnccc1N1CCC[C@@H](N)C1 [Example 177, 3-amino-N-{4-[(3R)-3-amino-piperidin-1-yl]pyridin-3-yl}pyrazine-2-carboxamide] |  | > 10 µM | < 1 µM | < 1 µM | < 1 µM |
| Nc1ccc(-c2cccnc2)nc1C(=O)Nc1cnccc1N1CCC[C@H](N)C1 [Example 414, 5-amino-[2,3′]bipyridinyl-6-carboxylic acid ((S)-3-amino-3,4,5,6-tetrahydro-2H-[1,4′]bi-pyridinyl-3′-yl)-amide] | < 1 µM | 1 to 5 µM | < 1 µM | < 1 µM |  |
| CCNC(=O)c1ccc(F)c(-c2ccc(N)c(C(=O)Nc3cnccc3N3CCC[C@H](N)C3)n2)c1 [Example 327, 3-amino-6-(5-ethylcarbamoyl-2-fluoro-phenyl)-pyridine-2-carboxylic acid ((S)-3-amino-3,4,5,6-tetrahydro-2H-[1,4′]bi-pyridinyl-3′-yl)-amide] | < 1 µM | 1 to 5 µM | < 1 µM | < 1 µM |  |
| Nc1ncc(Br)nc1C(=O)Nc1cnccc1N1CCCC(N)C1 (centres unmarked) [Example 181, 3-amino-N-[4-(3-aminopiperidin-1-yl)pyridin-3-yl]-6-bromopyrazine-2-carboxamide] | < 1 µM | < 1 µM | < 1 µM | < 1 µM |  |
| CCCNC(=O)c1ccc(F)c(-c2ccc(N)c(C(=O)Nc3cnccc3N3CCC[C@H](N)C3)n2)c1 [Example 326, 3-amino-6-(2-fluoro-5-propyl-carbamoyl-phenyl)-pyridine-2-carboxylic acid ((S)-3-amino-3,4,5,6-tetrahydro-2H-[1,4′]bipyridinyl-3′-yl)-amide] | < 1 µM | 1 to 5 µM | < 1 µM | < 1 µM |  |
| Nc1ccc(-c2cc(C(=O)NC3CCCCC3)ccc2F)nc1C(=O)Nc1cnccc1N1CCC[C@H](N)C1 [Example 324, 3-amino-6-(5-cyclohexyl-carbamoyl-2-fluoro-phenyl)-pyridine-2-carboxylic acid ((S)-3-amino-3,4,5,6-tetra-hydro-2H-[1,4′]bipyridinyl-3′-yl)-amide] | < 1 µM | < 1 µM | < 1 µM | < 1 µM |  |
| Cc1ccc(S(=O)(=O)N(C)C)cc1-c1ccc(N)c(C(=O)Nc2cnccc2N2CCC[C@H](N)C2)n1 [Example 330, 3-amino-6-(5-dimethyl-sulfamoyl-2-methyl-phenyl)-pyridine-2-carboxylic acid ((S)-3-amino-3,4,5,6-tetra-hydro-2H-[1,4′]bipyridinyl-3′-yl)-amide] | < 1 µM | > 10 µM | < 1 µM | < 1 µM |  |
| Nc1ccc(-c2cccnc2Cl)nc1C(=O)Nc1cnccc1N1CCC[C@H](N)C1 [Example 331, 5-amino-2′-chloro-[2,3′]bi-pyridinyl-6-carboxylic acid ((S)-3-amino-3,4,5,6-tetra-hydro-2H-[1,4′]bipyridinyl-3′-yl)-amide] | < 1 µM | 1 to 5 µM | < 1 µM | < 1 µM |  |
